We go through ten compounds from ChEMBL document CHEMBL3396979, “Synthesis and characterization of 1'-C-cyano-2'-fluoro-2'-C-methyl pyrimidine nucleosides as HCV polymerase inhibitors” (Bioorg Med Chem Lett, 2015).

The subject of data set [1] is Hepatitis C virus. The data set can be described thus: Antiviral activity against HCV genotype 1b infected in human HuH7 cells by replicon based assay. The class given is functional, cell-based, Hepacivirus hominis. The note with it: Huh-7. On the technique in general: Replicon systems follow genome replication, usually without infectious particles.
The subject of data set [2] is Hepatitis C virus. Nature of the data set: Antiviral activity against HCV genotype 2a infected in human HuH7 cells by replicon based assay. The class given is functional, cell-based, Hepacivirus hominis. The note with it: Huh-7.
Data set [3] is described as follows: Drug metabolism in human HuH7 cells bearing HCV replicons assessed as formation of triphosphates at 10 uM after 72 hrs by liquid chromatography coupled to triple quadrupole mass spectrometry. The class given is ADME, cell-based. The note with it: huh-7, 72 h.
Data set [4] can be described thus: Cytotoxicity against human HuH7 cells. The data set is classed as cell-based, Huh-7.
Data set [5] concerns Hepatitis C virus. The data set can be described thus: Antiviral activity against HCV genotype 1a infected in human HuH7 cells by replicon based assay. The class given is functional, cell-based, Hepacivirus hominis. The note with it: subtype 1a, Huh-7.
Data set [6] in a line: Inhibition of HCV genotype 1b NS5B RNA dependent RNA polymerase assessed as reduction in triphosphate activity. Also on record: species or system Hepatitis C virus subtype 1b.
Data set [7] is described as follows: Inhibition of HCV genotype 2a NS5B RNA dependent RNA polymerase assessed as reduction in triphosphate activity. Also on record: species or system Hepatitis C virus subtype 2a.
The nature of data set [8]: Inhibition of HCV genotype 3a NS5B RNA dependent RNA polymerase assessed as reduction in triphosphate activity. Also on record: species or system Hepatitis C virus subtype 3a.
Data set [9] can be described thus: Inhibition of HCV genotype 4a NS5B RNA dependent RNA polymerase assessed as reduction in triphosphate activity. Also on record: species or system Hepatitis C virus subtype 4a.
The nature of data set [10]: Drug metabolism in human HuH7 cells bearing HCV replicons assessed as formation of uridine-type triphosphates at 10 uM after 72 hrs by liquid chromatography coupled to triple quadrupole mass spectrometry. The data set is classed as ADME, cell-based. The note with it: huh-7, 72 h.

Regarding `CC(C)OC(=O)[C@H](C)N[P@](=O)(OC[C@H]1O[C@@](C#N)(n2ccc(=O)[nH]c2=O)[C@](C)(F)[C@@H]1O)Oc1ccccc1`, the EC50 – broadly, the concentration needed to bring the measured effect to its halfway point – in data set [1] is 63.5 µM; in data set [2], over 88 µM. The Drug metabolism entry in data set [3] is reported as “metabolite_detected”. For the same compound, the CC50 (usually the concentration that lowers cell viability or growth by half) in data set [4] was over 89 µM.

`C[C@@]1(F)[C@H](O)[C@@H](CO)O[C@H]1n1ccc(=O)[nH]c1=O`: the EC50 in data set [1] and in data set [5] was over 89 µM each time. The IC50 in data set [6] (read-out: IC50), in [7], in [8] and in [9] was 0.7 µM in each case.

As to `CC(C)OC(=O)[C@H](C)N[P@](=O)(OC[C@H]1O[C@@](C#N)(n2ccc(N)nc2=O)[C@](C)(F)[C@@H]1O)Oc1ccccc1`, the EC50 in data set [1] came out at 17.6 µM; in data set [2], 2.3 µM; in data set [5], 2.9 µM. Also, the Drug metabolism entry in data set [10] was “metabolite_notdetected”; in data set [3], “metabolite_detected”. This compound had a CC50 in [4] of over 89 µM.

As to `C[C@@]1(O)[C@H](O)[C@@H](CO)O[C@@]1(C#N)n1ccc(N)nc1=O`, the EC50 in data set [1] is over 89 µM; in data set [5], 76 µM. Also, in data set [6] (read-out: IC50), the IC50 (in general, the concentration that inhibits the measured activity by half) is 17.7 µM.

`C[C@@]1(O)[C@H](O)[C@@H](CO)O[C@H]1n1ccc(=O)[nH]c1=O` displayed an EC50 in data set [1] of 13.1 µM. Moreover, in data set [6] (read-out: IC50), the IC50 was determined as 1.9 µM.

On to `C[C@@]1(O)[C@H](O)[C@@H](CO)O[C@@]1(C#N)n1ccc(=O)[nH]c1=O`, for which the EC50 in data set [1] and in data set [5] was over 89 µM each time. Besides, the IC50 in [6] (read-out: IC50) stood at 27 µM.

Turning to `C[C@@]1(F)[C@H](O)[C@@H](CO)O[C@@]1(C#N)n1ccc(N)nc1=O`, the EC50 in [1] and in data set [5] was over 89 µM throughout. The IC50 in [6] (read-out: IC50) is 57 µM.

For the compound `C[C@@]1(F)[C@H](O)[C@@H](CO)O[C@H]1n1ccc(N)nc1=O`, the EC50 in [1] is 2.3 µM; in data set [5] it was 0.6 µM. Besides, the Ki – broadly, the equilibrium dissociation constant of an inhibitor or competing ligand from its target – in [6] came to 0.06 µM.

As for `C[C@@]1(O)[C@H](O)[C@@H](CO)O[C@H]1n1ccc(N)nc1=O`, in data set [6] (read-out: IC50), the IC50 was 1.7 µM.

In the case of `C[C@@]1(F)[C@H](O)[C@@H](CO)O[C@@]1(C#N)n1ccc(=O)[nH]c1=O`, the EC50 in data set [1] and in data set [5] was over 89 µM in each case. Further, the IC50 entry in data set [6] is “Not Active”.
